Measurements reported in ChEMBL document CHEMBL1201862, “PubChem BioAssay data set” (2004).
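Protocol summary: plate cells (96-well), add compound at 5 concentrations, incubate 48 h, interpolate endpoints linearly. GI50: concentration for 50% inhibition of growth.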 Calls of active or inactive are those of the source. Cut-off read from the data, not from the text of the source: active = GI50 up to about 1.1 µM and inactive = higher.

Legend:
Assay in all cases: NCI anticancer screen, dose series, 48 h
SF-539 = test system: SF-539
SF-295 = test system: SF-295
IGROV-1 = test system: IGROV-1
HT-29 = test system: HT-29
DU-145 = test system: DU-145
SK-MEL-28 = test system: SK-MEL-28
UO-31 = test system: UO-31
Hs-578T = test system: Hs-578T
OVCAR-8 = test system: OVCAR-8
HL-60 = test system: HL-60
RXF 393 = test system: RXF 393
MDA-MB-231 = test system: MDA-MB-231
A498 = test system: A498
K562 = test system: K562
KM12 = test system: KM12
HOP-92 = test system: HOP-92
NCI-H460 = test system: NCI-H460
PC-3 = test system: PC-3
HOP-62 = test system: HOP-62
SN12C = test system: SN12C
CCRF-CEM = test system: CCRF-CEM
NCI/ADR-RES = test system: NCI/ADR-RES
SW-620 = test system: SW-620
SK-MEL-5 = test system: SK-MEL-5
786-0 = test system: 786-0
NCI-H522 = test system: NCI-H522
ACHN = test system: ACHN
BT-549 = test system: BT-549
SK-MEL-2 = test system: SK-MEL-2
EKVX = test system: EKVX
RPMI-8226 = test system: RPMI-8226
SNB-19 = test system: SNB-19
Malme-3M = test system: Malme-3M
SNB-75 = test system: SNB-75
OVCAR-4 = test system: OVCAR-4
OVCAR-3 = test system: OVCAR-3
COLO 205 = test system: COLO 205
MDA-MB-435 = test system: MDA-MB-435
UACC-62 = test system: UACC-62
LOX IMVI = test system: LOX IMVI
HCT-116 = test system: HCT-116
TK-10 = test system: TK-10
U-251 = test system: U-251
UACC-257 = test system: UACC-257
NCI-H226 = test system: NCI-H226
A549 = test system: A549
T47D = test system: T47D
SF-268 = test system: SF-268
MCF7 = test system: MCF7
NCI-H23 = test system: NCI-H23
OVCAR-5 = test system: OVCAR-5
HCC 2998 = test system: HCC 2998
M14 = test system: M14
HCT-15 = test system: HCT-15
CAKI-1 = test system: CAKI-1
MOLT-4 = test system: MOLT-4
SR = test system: SR
SK-OV-3 = test system: SK-OV-3
MDA-N = test system: MDA-N

FC(F)(F)c1ccc(Cc2nc3cc4ccccc4cc3[nH]2)cc1
GI50 (SF-539): > 100 µM (inactive) | GI50 (SF-295): > 100 µM (inactive) | GI50 (IGROV-1): 16 µM (inactive) | GI50 (HT-29): 91.8 µM (inactive) | GI50 (DU-145): > 100 µM (inactive) | GI50 (SK-MEL-28): > 100 µM (inactive) | GI50 (UO-31): 58.5 µM (inactive) | GI50 (Hs-578T): 95.7 µM (inactive) | GI50 (OVCAR-8): > 100 µM (inactive) | GI50 (HL-60): 93.1 µM (inactive) | GI50 (RXF 393): 51.6 µM (inactive) | GI50 (MDA-MB-231): > 100 µM (inactive) | GI50 (A498): > 100 µM (inactive) | GI50 (K562): 32.1 µM (inactive) | GI50 (KM12): > 100 µM (inactive) | GI50 (HOP-92): 2.11 µM (inactive) | GI50 (NCI-H460): > 100 µM (inactive) | GI50 (PC-3): > 100 µM (inactive) | GI50 (HOP-62): > 100 µM (inactive) | GI50 (SN12C): > 100 µM (inactive) | GI50 (CCRF-CEM): > 100 µM (inactive) | GI50 (NCI/ADR-RES): > 100 µM (inactive) | GI50 (SW-620): > 100 µM (inactive) | GI50 (SK-MEL-5): 54.6 µM (inactive) | GI50 (786-0): 89.5 µM (inactive) | GI50 (NCI-H522): 26.7 µM (inactive) | GI50 (ACHN): 49 µM (inactive) | GI50 (BT-549): > 100 µM (inactive) | GI50 (SK-MEL-2): > 100 µM (inactive) | GI50 (EKVX): > 100 µM (inactive) | GI50 (RPMI-8226): 6.97 µM (inactive) | GI50 (SNB-19): 45.7 µM (inactive) | GI50 (Malme-3M): > 100 µM (inactive) | GI50 (SNB-75): 3.78 µM (inactive) | GI50 (OVCAR-4): 31.5 µM (inactive) | GI50 (OVCAR-3): 57.4 µM (inactive) | GI50 (COLO 205): > 100 µM (inactive) | GI50 (MDA-MB-435): > 100 µM (inactive) | GI50 (UACC-62): > 100 µM (inactive) | GI50 (LOX IMVI): 77.8 µM (inactive) | GI50 (HCT-116): > 100 µM (inactive) | GI50 (TK-10): > 100 µM (inactive) | GI50 (U-251): 71.3 µM (inactive) | GI50 (UACC-257): > 100 µM (inactive) | GI50 (NCI-H226): > 100 µM (inactive) | GI50 (A549): > 100 µM (inactive) | GI50 (T47D): 39.9 µM (inactive) | GI50 (SF-268): > 100 µM (inactive) | GI50 (MCF7): 92.3 µM (inactive) | GI50 (NCI-H23): > 100 µM (inactive) | GI50 (OVCAR-5): > 100 µM (inactive) | GI50 (HCC 2998): > 100 µM (inactive) | GI50 (M14): > 100 µM (inactive) | GI50 (HCT-15): > 100 µM | GI50 (CAKI-1): 73.3 µM (inactive)

Cc1cc2c3c(nc4ccccc42)C(=O)c2ccccc2-c3n1
GI50 (SF-539): 19.3 µM (inactive) | GI50 (SF-295): 10.1 µM (inactive) | GI50 (IGROV-1): 2.98 µM (inactive) | GI50 (HT-29): 21.7 µM (inactive) | GI50 (DU-145): 23.5 µM (inactive) | GI50 (MOLT-4): 3.34 µM (inactive) | GI50 (SK-MEL-28): 14.6 µM (inactive) | GI50 (UO-31): 10.5 µM (inactive) | GI50 (Hs-578T): 13.4 µM (inactive) | GI50 (OVCAR-8): 5.52 µM (inactive) | GI50 (RXF 393): 20.3 µM (inactive) | GI50 (MDA-MB-231): 18 µM (inactive) | GI50 (A498): 16.9 µM (inactive) | GI50 (K562): 0.839 µM (active) | GI50 (KM12): 1.02 µM (active) | GI50 (HOP-92): 19.3 µM (inactive) | GI50 (PC-3): 0.851 µM (active) | GI50 (SR): 1.79 µM (inactive) | GI50 (HOP-62): 6.18 µM (inactive) | GI50 (SN12C): 17 µM (inactive) | GI50 (CCRF-CEM): 5.16 µM (inactive) | GI50 (NCI/ADR-RES): 6.53 µM (inactive) | GI50 (SW-620): 9.48 µM (inactive) | GI50 (SK-MEL-5): 0.569 µM (active) | GI50 (786-0): 25.5 µM (inactive) | GI50 (NCI-H522): 1.68 µM (inactive) | GI50 (ACHN): 12.2 µM (inactive) | GI50 (BT-549): 16.9 µM (inactive) | GI50 (SK-OV-3): 14.8 µM (inactive) | GI50 (SK-MEL-2): 17.9 µM (inactive) | GI50 (EKVX): 29.4 µM (inactive) | GI50 (RPMI-8226): 3.14 µM (inactive) | GI50 (SNB-19): 45.8 µM (inactive) | GI50 (SNB-75): 4.37 µM (inactive) | GI50 (OVCAR-4): 25.4 µM (inactive) | GI50 (OVCAR-3): 0.135 µM (active) | GI50 (COLO 205): 16.8 µM (inactive) | GI50 (MDA-MB-435): 1.66 µM (inactive) | GI50 (UACC-62): 1.8 µM (inactive) | GI50 (HCT-116): 8.59 µM (inactive) | GI50 (TK-10): 34.8 µM (inactive) | GI50 (U-251): 16.1 µM (inactive) | GI50 (UACC-257): 22.8 µM (inactive) | GI50 (NCI-H226): 21 µM (inactive) | GI50 (A549): 7.1 µM (inactive) | GI50 (T47D): 12.7 µM (inactive) | GI50 (SF-268): 30.6 µM (inactive) | GI50 (MCF7): 10.5 µM (inactive) | GI50 (NCI-H23): 2.4 µM (inactive) | GI50 (OVCAR-5): 32 µM (inactive) | GI50 (HCC 2998): 20.1 µM (inactive) | GI50 (M14): 4.44 µM (inactive) | GI50 (HCT-15): 1.35 µM | GI50 (CAKI-1): 12.3 µM (inactive)

N=C(N)SCCc1ccccn1
GI50 (SF-295): > 100 µM (inactive) | GI50 (HT-29): > 100 µM (inactive) | GI50 (DU-145): > 100 µM (inactive) | GI50 (Hs-578T): > 100 µM (inactive) | GI50 (MDA-MB-231): 55.2 µM (inactive) | GI50 (K562): > 100 µM (inactive) | GI50 (PC-3): > 100 µM (inactive) | GI50 (SR): > 100 µM (inactive) | GI50 (NCI/ADR-RES): > 100 µM (inactive) | GI50 (BT-549): > 100 µM (inactive) | GI50 (EKVX): 89.3 µM (inactive) | GI50 (MDA-MB-435): > 100 µM (inactive) | GI50 (TK-10): > 100 µM (inactive) | GI50 (U-251): 51.2 µM (inactive) | GI50 (UACC-257): > 100 µM (inactive) | GI50 (MCF7): > 100 µM (inactive) | GI50 (HCC 2998): > 100 µM (inactive) | GI50 (MDA-N): > 100 µM (inactive) | GI50 (CAKI-1): > 100 µM (inactive)

CCOC(=O)C(NC(=O)Nc1ccc(Cl)c(Cl)c1)C(F)(F)F (configuration not stated)
GI50 (SF-539): > 100 µM (inactive) | GI50 (IGROV-1): > 100 µM (inactive) | GI50 (HT-29): > 100 µM (inactive) | GI50 (MOLT-4): > 100 µM (inactive) | GI50 (SK-MEL-28): > 100 µM (inactive) | GI50 (UO-31): 49.8 µM (inactive) | GI50 (Hs-578T): 40.5 µM (inactive) | GI50 (OVCAR-8): > 100 µM (inactive) | GI50 (HL-60): > 100 µM (inactive) | GI50 (RXF 393): > 100 µM (inactive) | GI50 (A498): > 100 µM (inactive) | GI50 (K562): 92.5 µM (inactive) | GI50 (PC-3): > 100 µM (inactive) | GI50 (SR): > 100 µM (inactive) | GI50 (SN12C): > 100 µM (inactive) | GI50 (CCRF-CEM): > 100 µM (inactive) | GI50 (NCI/ADR-RES): > 100 µM (inactive) | GI50 (SW-620): > 100 µM (inactive) | GI50 (SK-MEL-5): > 100 µM (inactive) | GI50 (786-0): > 100 µM (inactive) | GI50 (ACHN): 57.4 µM (inactive) | GI50 (BT-549): 45.2 µM (inactive) | GI50 (SK-OV-3): > 100 µM (inactive) | GI50 (SK-MEL-2): 63 µM (inactive) | GI50 (EKVX): 77.1 µM (inactive) | GI50 (RPMI-8226): > 100 µM (inactive) | GI50 (SNB-19): > 100 µM (inactive) | GI50 (SNB-75): > 100 µM (inactive) | GI50 (COLO 205): > 100 µM (inactive) | GI50 (MDA-MB-435): 87.1 µM (inactive) | GI50 (LOX IMVI): > 100 µM (inactive) | GI50 (HCT-116): > 100 µM (inactive) | GI50 (TK-10): > 100 µM (inactive) | GI50 (U-251): > 100 µM (inactive) | GI50 (UACC-257): > 100 µM (inactive) | GI50 (A549): > 100 µM (inactive) | GI50 (T47D): > 100 µM (inactive) | GI50 (SF-268): > 100 µM (inactive) | GI50 (NCI-H23): > 100 µM (inactive) | GI50 (OVCAR-5): > 100 µM (inactive) | GI50 (HCC 2998): > 100 µM (inactive) | GI50 (M14): > 100 µM (inactive) | GI50 (HCT-15): 40.9 µM | GI50 (MDA-N): > 100 µM (inactive)
